Test results taken from patent US10519177B2, “Heterocyclic compounds and uses thereof” (Plexxikon Inc., priority 2013, dated 2019).
pIC50: −log10 of the molar value. Read-outs that look alike come from different tables or passages of the source.

Columns and labels:
BRD4-BD12 (1-477) = BRD4-BD12 (1-477) (Homo sapiens (Human), UniProt O60885); assay: Alphascreen binding assay BRD4-BD12; details: BRD4(1 2) H4; read-out: Biochemical activity (IC50 μM) BRD4(1 2) H4
Outline: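 First, compound was preincubated 1 h at room temperature with the His-tagged BRD4 protein (BD1 44-164 or tandem BD12 1-477) and acetylated H4 peptide. Next, donor and acceptor beads were added at 7.5 μg/ml final. After 30 min, AlphaScreen emission was recorded.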

MV-4-11 cells = assay: Oncology cell growth assay MV-4-11 (CellTiter Glo); assay type: cell-based; details: Homo sapiens, MV4-11, 72 h, read-out: Cell activity (IC50 μM) MV-4-11 3d-Growth
Outline: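 MV-4-11 AML cells (MLL-AF4), 3000 per well, exposed to 8-point 1:3 compound titration from 10 μM top concentration (0.2% DMSO) for 72 h. Viability by CellTiter Glo luminescence, normalized to DMSO controls; pIC50 from four-parameter curve fit.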

bromodomain = assay: at least one of the bromodomain cell assays of Example 57; assay type: cell-based; details: at least one of the bromodomain cell assays described in Example 57; read-out: IC50 in at least one of the bromodomain cell assays

Structure (SMILES)	IC50 (BRD4-BD12 (1-477))	IC50 (MV-4-11 cells; MV-4-11, 3d growth)	pIC50 (bromodomain)	IC50 (MV-4-11 cells)
Cc1noc(C)c1-c1cnc2c(-c3ccc(C(F)(F)C(=O)O)cc3)cn([C@@H](C)c3ccccn3)c2c1 [P-0566, 2,2-difluoro-2-(4-(6-(3,5-dimethylisoxazol-4-yl)-1-((S)-1-(pyridin-2-yl)ethyl)-1H-pyrrolo[3,2-b]pyridin-3-yl)phenyl)acetic acid]	< 1 µM	1 to 10 µM	> 5.00	
Nc1ncc(-c2cnc3c(-c4cnn(CC(F)(F)F)c4)cn(CC4CCC(F)(F)CC4)c3c2)cn1 [P-0451, 5-[1-[(4,4-difluorocyclohexyl)methyl]-3-[1-(2,2,2-trifluoroethyl)pyrazol-4-yl]pyrrolo[3,2-b]pyridin-6-yl]pyrimidin-2-amine]	1 to 10 µM	10 to 200 µM	> 5.00	
CNS(=O)(=O)c1ccc(-c2cn([C@@H](C)c3ccccn3)c3cc(-c4c(C)noc4C)cnc23)cc1 [P-0555, 4-[6-(3,5-dimethylisoxazol-4-yl)-1-[(1S)-1-(2-pyridyl)ethyl]pyrrolo[3,2-b]pyridin-3-yl]-N-methyl-benzenesulfonamide]	< 1 µM	< 1 µM	> 5.00	
Cc1nnn(C)c1-c1cnc2c(-c3cnn(C(F)F)c3)cn(CC3CCC(F)(F)CC3)c2c1 [P-0357, 1-[(4,4-difluorocyclohexyl)methyl]-3-[1-(difluoromethyl)pyrazol-4-yl]-6-(3,5-dimethyltriazol-4-yl)pyrrolo[3,2-b]pyridine]	< 1 µM		> 5.00	< 1 µM
COC(=O)c1ccc(-c2cn(CC3CCC4(CC3)CC4)c3cc(-c4c(C)noc4C)cnc23)cc1 [P-0581, methyl 4-[6-(3,5-dimethylisoxazol-4-yl)-1-(spiro[2.5]octan-6-ylmethyl)pyrrolo[3,2-b]pyridin-3-yl]benzoate]	< 1 µM	1 to 10 µM	> 5.00	
Cc1noc(C)c1-c1cnc2c(-c3ccc(C(=O)O)c(Cl)c3)cn(CC3CCC(F)(F)CC3)c2c1 [P-0535, 2-chloro-4-[1-[(4,4-difluorocyclohexyl)methyl]-6-(3,5-dimethylisoxazol-4-yl)pyrrolo[3,2-b]pyridin-3-yl]benzoic acid]	< 1 µM	< 1 µM	> 5.00	
Cc1noc(C)c1-c1cnc2c(-c3ccc(C(=O)O)cc3)cn(C(c3ccccn3)c3ccccn3)c2c1 [P-0576, 4-[1-[bis(2-pyridyl)methyl]-6-(3,5-dimethylisoxazol-4-yl)pyrrolo[3,2-b]pyridin-3-yl]benzoic acid]	< 1 µM	< 1 µM	> 5.00	
Cc1noc(C)c1-c1cnc2c(-c3ccc(N)nc3)cn(CC3(F)CCCCC3)c2c1 [P-0520, 5-[6-(3,5-dimethylisoxazol-4-yl)-1-[(1-fluorocyclohexyl)methyl]pyrrolo[3,2-b]pyridin-3-yl]pyridin-2-amine]	< 1 µM	< 1 µM	> 5.00	
Cc1noc(C)c1-c1cnc2c(-c3ccc(CO)cc3)cn(CC3CCC(F)(F)CC3)c2c1 [P-0601, [4-[1-[(4,4-difluorocyclohexyl)methyl]-6-(3,5-dimethylisoxazol-4-yl)pyrrolo[3,2-b]pyridin-3-yl]phenyl]methanol]	< 1 µM	< 1 µM	> 5.00	
CNS(=O)(=O)c1cccc(-c2cn(CC3(F)CCCCC3)c3cc(-c4c(C)noc4C)cnc23)c1 [P-0489, 3-[6-(3,5-dimethylisoxazol-4-yl)-1-[(1-fluorocyclohexyl)methyl]pyrrolo[3,2-b]pyridin-3-yl]-N-methyl-benzenesulfonamide]	< 1 µM	< 1 µM	> 5.00	
Cc1noc(C)c1-c1cnc2c(-c3ccc(C#N)cc3)cn(CC3(F)CCC(F)(F)CC3)c2c1 [P-0458, 4-[6-(3,5-dimethylisoxazol-4-yl)-1-[(1,4,4-trifluorocyclohexyl)methyl]pyrrolo[3,2-b]pyridin-3-yl]benzonitrile]	< 1 µM	< 1 µM	> 5.00	
Cc1onc(N)c1-c1cnc2c(-c3cnn(CC(F)(F)F)c3)cn(CC3CCC(F)(F)CC3)c2c1 [P-0368, 4-[1-[(4,4-difluorocyclohexyl)methyl]-3-[1-(2,2,2-trifluoroethyl)pyrazol-4-yl]pyrrolo[3,2-b]pyridin-6-yl]-5-methyl-isoxazol-3-amine]	< 1 µM		> 5.00	< 1 µM
COc1cc(-c2cn(CC3(F)CCCCC3)c3cc(-c4c(C)noc4C)cnc23)ccc1C(=O)O [P-0504, 4-[6-(3,5-dimethylisoxazol-4-yl)-1-[(1-fluorocyclohexyl)methyl]pyrrolo[3,2-b]pyridin-3-yl]-2-methoxy-benzoic acid]	< 1 µM	< 1 µM	> 5.00	
Cc1noc(C)c1-c1cnc2c(-c3cnn(C(F)F)c3)cn(C(CC#N)C3CCCC3)c2c1 (stereo not drawn) [P-0252, 3-cyclopentyl-3-[3-[1-(difluoromethyl)pyrazol-4-yl]-6-(3,5-dimethylisoxazol-4-yl)pyrrolo[3,2-b]pyridin-1-yl]propanenitrile]	< 1 µM		> 5.00	< 1 µM
COC(=O)c1ccc(-c2cn(CC3CCCC3)c3cc(-c4c(C)noc4C)cnc23)cc1 [P-0550, methyl 4-[1-(cyclopentylmethyl)-6-(3,5-dimethylisoxazol-4-yl)pyrrolo[3,2-b]pyridin-3-yl]benzoate]	< 1 µM	1 to 10 µM	> 5.00	
Cc1noc(C)c1-c1cnc2c(-c3ccc(C(=O)O)cc3)cn(C(C)(C)c3ccccn3)c2c1 [P-0548, 4-[6-(3,5-dimethylisoxazol-4-yl)-1-[1-methyl-1-(2-pyridyl)ethyl]pyrrolo[3,2-b]pyridin-3-yl]benzoic acid]	< 1 µM	< 1 µM	> 5.00	
Cc1noc(C)c1-c1cnc2c(-c3cnc(N)nc3)cn(CC3(F)CCCCC3)c2c1 [P-0473, 5-[6-(3,5-dimethylisoxazol-4-yl)-1-[(1-fluorocyclohexyl)methyl]pyrrolo[3,2-b]pyridin-3-yl]pyrimidin-2-amine]	< 1 µM	< 1 µM	> 5.00	
Cc1noc(C)c1-c1cnc2c(-c3ccc(C(=O)O)cc3F)cn(CC3CCC(F)(F)CC3)c2c1 [P-0417, 4-[1-[(4,4-difluorocyclohexyl)methyl]-6-(3,5-dimethylisoxazol-4-yl)pyrrolo[3,2-b]pyridin-3-yl]-3-fluoro-benzoic acid]	< 1 µM		> 5.00	< 1 µM
[2H]C([2H])(C1CCC(F)(F)CC1)n1cc(-c2cnc(C3CC3)nc2)c2ncc(-c3c(C)noc3C)cc21 [P-0349, 4-[3-(2-cyclopropylpyrimidin-5-yl)-1-[dideuterio-(4,4-difluorocyclohexyl)methyl)pyrrolo[3,2-b]pyridin-6-yl]-3,5-dimethyl-isoxazole]	< 1 µM		> 5.00	< 1 µM
Cc1noc(C)c1-c1cnc2c(-c3cccc(CC(=O)O)c3)cn(CC3(F)CCCCC3)c2c1 [P-0384, 2-[3-[6-(3,5-dimethylisoxazol-4-yl)-1-[(1-fluorocyclohexyl)methyl]pyrrolo[3,2-b]pyridin-3-yl]phenyl]acetic acid]	< 1 µM		> 5.00	< 1 µM
[2H]C([2H])(C1CCC(F)(F)CC1)n1cc(C(=O)O)c2ncc(-c3c(C)noc3C)cc21 [P-0459, 1-[dideuterio-(4,4-difluorocyclohexyl)methyl]-6-(3,5-dimethylisoxazol-4-yl)pyrrolo[3,2-b]pyridine-3-carboxylic acid]	< 1 µM	1 to 10 µM	> 5.00	
Cc1noc(C)c1-c1cnc2c(-c3ccc(C(=O)O)cc3)cn([C@@H](C)c3ccccc3)c2c1 [P-0560, 4-[6-(3,5-dimethylisoxazol-4-yl)-1-[(1S)-1-phenylethyl]pyrrolo[3,2-b]pyridin-3-yl]benzoic acid]	< 1 µM	< 1 µM	> 5.00	
Cc1noc(C)c1-c1cnc2c(-c3ccc(C(=O)O)cc3)cn(CC3CCCC3)c2c1 [P-0552, 4-[1-(cyclopentylmethyl)-6-(3,5-dimethylisoxazol-4-yl)pyrrolo[3,2-b]pyridin-3-yl]benzoic acid]	< 1 µM	< 1 µM	> 5.00	
Cc1noc(C)c1-c1cnc2c(-c3cnn(CCF)c3)cn(CC3(F)CCCCC3)c2c1 [P-0260, 4-[1-[(1-fluorocyclohexyl)methyl]-3-[1-(2-fluoroethyl)pyrazol-4-yl]pyrrolo[3,2-b]pyridin-6-yl]-3,5-dimethyl-isoxazole]	< 1 µM		> 5.00	< 1 µM
[2H]C([2H])(C1CCC(F)(F)CC1)n1cc(-c2cn(C)nc2C)c2ncc(-c3c(C)noc3C)cc21 [P-0335, 4-[1-[dideuterio-(4,4-difluorocyclohexyl)methyl]-3-(1,3-dimethylpyrazol-4-yl)pyrrolo[3,2-b]pyridin-6-yl]-3,5-dimethyl-isoxazole]	< 1 µM		> 5.00	< 1 µM
Cc1noc(C)c1-c1cnc2c(-c3cnc(N)cn3)cn(CC3(F)CCCCC3)c2c1 [P-0472, 5-[6-(3,5-dimethylisoxazol-4-yl)-1-[(1-fluorocyclohexyl)methyl]pyrrolo[3,2-b]pyridin-3-yl]pyrazin-2-amine]	< 1 µM	< 1 µM	> 5.00	
Cc1noc(C)c1-c1cnc2c(-c3ccc(C(=O)O)cc3)cn(CC3CCCCCCC3)c2c1 [P-0579, 4-[1-(cyclooctylmethyl)-6-(3,5-dimethylisoxazol-4-yl)pyrrolo[3,2-b]pyridin-3-yl]benzoic acid]	< 1 µM	< 1 µM	> 5.00	
